The text below walks through data of patent publication US8440842B2, “Antimicrobial compounds, their synthesis and their use for treatment of mammalian infections” (Leibniz-Institut fuer Naturstoff-Forschung und …, priority 2007, dated 2013).

Test [1] concerns HSRE resistant strain (multiresistant clinical isolate). The test is described as follows: MIC and MBC, classical method (liquid Shkolnikova medium, Lowenstein-Jensen medium). In kind it is cell-based, Mycobacterium tuberculosis.
The subject of test [2] is XTB strain (extremly resistant clinical isolate). The test is described as above. In kind it is cell-based, Mycobacterium tuberculosis.

Converted amounts (≈) assume the structure as drawn.

Turning to `CN(Cc1ccccc1)c1nc(=O)c2cc(C(F)(F)F)cc([N+](=O)[O-])c2s1` [Compound 5, 2-[Benzyl(methyl)amino]-8-nitro-6-(trifluoromethyl)-4H-1,3-benzothiazin-4-one], the MBC in test [1] (Mycobacterium tuberculosis) and in test [2] (Mycobacterium tuberculosis) was 3.12 µg/mL (≈ 7.89 µM) in each case. For the same molecule, the MIC in test [1] (Mycobacterium tuberculosis) and in test [2] (Mycobacterium tuberculosis) was 1.56 µg/mL (≈ 3.95 µM) in each case.

Consider `O=c1nc(NCc2ccccc2)sc2c([N+](=O)[O-])cc(C(F)(F)F)cc12` [Compound 8, 2-(Benzylamino)-8-nitro-6-(trifluoromethyl)-4H-1,3-benzothiazin-4-one], for which the MBC in test [1] (Mycobacterium tuberculosis) and in test [2] (Mycobacterium tuberculosis) was 1.56 µg/mL (≈ 4.09 µM) each time. The MIC in test [1] (Mycobacterium tuberculosis) and in test [2] (Mycobacterium tuberculosis) was 0.78 µg/mL (≈ 2.05 µM) each time.

Consider `CN(Cc1ccccc1)c1nc(=O)c2cc(Cl)cc([N+](=O)[O-])c2s1` [Compound 10, 2-[Benzyl(methyl)amino]-6-chloro-8-nitro-4H-1,3-benzothiazin-4-one], for which, in test [1] (Mycobacterium tuberculosis), the MBC (in general, the smallest concentration meeting the test's criterion for killing) is 1.56 µg/mL (≈ 4.31 µM) and the MIC (in general, the lowest concentration found to suppress growth) was determined as 1.56 µg/mL (≈ 4.31 µM). For the same molecule, in test [2] (Mycobacterium tuberculosis), the MBC was 0.39 µg/mL (≈ 1.08 µM) and the MIC is under 0.39 µg/mL.

`NNC(=O)c1ccncc1` [Isoniazid (INH), Isoniazid, reference compound]: the MIC result in test [1] (HSRE resistant strain (multiresistant)) and in test [2] (X TB strain (extremly resistant)) was “Not active” each time.
